Values of other authors as cited in US6238865A, “Simple and efficient method to label and modify 3'-termini of RNA using DNA polymerase and a synthetic template with defined overhang nucleotides” (Chen; Guangtian, priority 1998, dated 2001).

Molecular target: poly(A) polymerase (Saccharomyces cerevisiae, UniProt P29468)
Details: cited from Lingner et al., J. Biol. Chem. 266:8741-8746, 1991, read-out: Km for ATP

Sequence of poly(A) polymerase (P29468 whole entry): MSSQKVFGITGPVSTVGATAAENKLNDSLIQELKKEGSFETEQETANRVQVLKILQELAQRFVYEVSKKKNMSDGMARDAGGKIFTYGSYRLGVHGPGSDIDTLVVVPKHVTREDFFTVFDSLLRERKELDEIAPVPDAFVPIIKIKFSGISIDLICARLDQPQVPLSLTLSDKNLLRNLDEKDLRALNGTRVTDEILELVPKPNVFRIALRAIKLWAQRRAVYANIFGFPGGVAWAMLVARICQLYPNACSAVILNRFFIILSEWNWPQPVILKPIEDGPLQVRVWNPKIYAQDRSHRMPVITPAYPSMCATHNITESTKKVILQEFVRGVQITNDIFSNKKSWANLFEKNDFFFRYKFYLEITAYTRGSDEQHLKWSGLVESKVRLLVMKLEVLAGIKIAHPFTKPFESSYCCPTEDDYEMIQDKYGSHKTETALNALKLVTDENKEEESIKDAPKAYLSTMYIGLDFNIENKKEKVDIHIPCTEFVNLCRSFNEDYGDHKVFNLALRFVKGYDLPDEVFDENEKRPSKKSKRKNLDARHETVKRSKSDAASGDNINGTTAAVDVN

In the case of `Nc1ncnc2c1ncn2[C@@H]1O[C@H](COP(=O)(O)OP(=O)(O)OP(=O)(O)O)[C@@H](O)[C@H]1O` [ATP], the Km is given as 50 µM.
